EC50 data for one compound are collected here from BindingDB's records for patent US20250002452 (Icagen, 2025).

Structures are written as SMILES. pEC50: −log10 of the molar value.

The assay concerns the target Potassium voltage-gated channel subfamily KQT member 2 (Homo sapiens, UniProt O43526). In words: SyncroPatch 384 (Nanion) High Throughput Electrophysiology Assay. The source says:
Solutions were of the following composition:Earle's balanced salt solution (in mM): 135 NaCl, 5.4 KCl, 5 Glucose, 2 CaCl2), 1 MgCl2, 5 HEPES, pH 7.4. Seal enhancer solution (in mM): 90 NaCl, 3 KCl, 35 CaCl2), 10 MgCl2, 10 HEPES, pH 7.4. Extracellular recording solution (in mM): 71 NaCl, 70 NMDG, 13 KCl, 5 Glucose, 2 CaCl2), 1 MgCl2, 10 HEPES, pH 7.4. Intracellular recording solution (in mM): 130 KF, 20 KCl, 4 EGTA, 10 HEPES, 2 EDTA, 0.01 Escin, pH 7.2.

Sequence of Potassium voltage-gated channel subfamily KQT member 2 (O43526 whole entry): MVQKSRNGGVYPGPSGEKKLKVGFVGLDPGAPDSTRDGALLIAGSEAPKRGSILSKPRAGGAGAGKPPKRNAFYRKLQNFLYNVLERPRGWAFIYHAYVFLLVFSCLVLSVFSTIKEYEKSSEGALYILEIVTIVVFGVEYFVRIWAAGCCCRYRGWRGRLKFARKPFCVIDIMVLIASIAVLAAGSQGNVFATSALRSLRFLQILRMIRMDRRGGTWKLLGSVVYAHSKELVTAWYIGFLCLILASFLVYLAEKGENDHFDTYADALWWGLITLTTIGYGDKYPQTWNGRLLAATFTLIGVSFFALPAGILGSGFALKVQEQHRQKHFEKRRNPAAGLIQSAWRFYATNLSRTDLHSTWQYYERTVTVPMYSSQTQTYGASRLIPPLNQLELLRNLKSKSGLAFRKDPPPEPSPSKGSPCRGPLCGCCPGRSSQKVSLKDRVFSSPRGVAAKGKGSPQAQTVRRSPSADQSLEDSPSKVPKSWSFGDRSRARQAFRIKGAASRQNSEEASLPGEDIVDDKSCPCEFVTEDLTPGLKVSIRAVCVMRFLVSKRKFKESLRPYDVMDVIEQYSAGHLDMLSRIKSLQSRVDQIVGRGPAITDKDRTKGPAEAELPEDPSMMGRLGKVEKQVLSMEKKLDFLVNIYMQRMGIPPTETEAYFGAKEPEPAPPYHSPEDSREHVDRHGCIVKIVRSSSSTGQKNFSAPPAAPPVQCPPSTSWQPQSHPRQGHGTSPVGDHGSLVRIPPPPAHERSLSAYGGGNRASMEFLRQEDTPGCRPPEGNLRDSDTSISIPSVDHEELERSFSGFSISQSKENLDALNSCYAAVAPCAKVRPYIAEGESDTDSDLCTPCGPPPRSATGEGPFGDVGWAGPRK

As to `CC(NC(=O)NC12CC(F)(C1)C2)c1cccc(OC(F)F)c1` (stereo unspecified) [US20250002452, Example 38], the pEC50 (in general, −log10 of the EC50, conventionally taken in molar units) is 6.74.
